According to ChEMBL document CHEMBL5393453, “Compositions and methods of using the same for treatment of neurodegenerative and mitochondrial disease” (2021):

Test: Cytotoxicity against human HeLa cells expressing YFP parkin assessed as highest safety dose by DAPI staining analysis
Type: toxicity, cell-based
Conditions: read-out: Activity
Compound Fc1ccc2c(c1)OC[C@H](N1C[C@H]3COC[C@H]3C1)[C@H]2Nc1ncnc2[nH]c(C(F)(F)F)cc12 (single isomer, unassigned) has an MNTC of 25 µM.
c1ccc2c(c1)OC[C@@H](N1CCOCC1)[C@@H]2Nc1ncnc2[nH]c(C3CC3)cc12 (single isomer, unassigned) showed an MNTC of 25 µM.
With CO[C@H]1CCN([C@@H]2COc3ccccc3[C@H]2Nc2ncnc3[nH]c(C4CC4)cc23)C1 the MNTC was 25 µM.
With C[C@@H]1CN([C@@H]2COc3cc(F)ccc3[C@H]2Nc2ncnc3[nH]c(C4CC4)cc23)CCO1 the MNTC was 25 µM.
Fc1ccc2c(c1)CC[C@@H](N1CCOCC1)[C@@H]2Nc1ncnc2[nH]c(C3CC3)cc12 showed an MNTC of 25 µM.
In the case of C[C@@H]1CN([C@@H]2COc3cc(F)ccc3[C@H]2Nc2ncnc3[nH]c(C(F)(F)F)cc23)CCO1, the MNTC was 25 µM.
With c1ccc2c(c1)OC[C@@H](N1CCOCC1)[C@H]2Nc1ncnc2[nH]c(C3CC3)cc12 the MNTC was 25 µM.
FC(F)(F)c1cc2c(N[C@H]3c4ccccc4OC[C@H]3N3CCOCC3)ncnc2[nH]1 showed an MNTC of 25 µM.
Fc1ccc2c(c1)OC[C@@H](N1CCOCC1)[C@@H]2Nc1ncnc2[nH]c(C3CC3)cc12 (single isomer, unassigned) gave an MNTC of 25 µM.
In the case of C[C@@H]1CN([C@H]2COc3cc(F)ccc3[C@@H]2Nc2ncnc3[nH]c(C(F)(F)F)cc23)CCO1, the MNTC was 25 µM.
In the case of C[C@@H]1CN([C@H]2COc3ccccc3[C@@H]2Nc2ncnc3[nH]c(C(F)(F)F)cc23)CCO1, the MNTC was 25 µM.
CO[C@@H]1CCN([C@@H]2COc3ccccc3[C@H]2Nc2ncnc3[nH]c(C(F)(F)F)cc23)C1 gave an MNTC of 25 µM.
With FC(F)(F)c1cc2c(N[C@H]3c4ccccc4CC[C@@H]3C3CCOCC3)ncnc2[nH]1 (single isomer, unassigned) the MNTC was 25 µM.
Compound Fc1ccc2c(c1)OC[C@H](N1C[C@H]3COC[C@@H]3C1)[C@H]2Nc1ncnc2[nH]c(C(F)(F)F)cc12 (single isomer, unassigned) has an MNTC of 25 µM.
For CN1CCN([C@H]2CCc3ccccc3[C@@H]2Nc2ncnc3[nH]c(C(F)(F)F)cc23)CC1 (single isomer, unassigned), the MNTC was 25 µM.
c1ccc2c(c1)CC[C@H](C1CCOCC1)[C@@H]2Nc1ncnc2[nH]c(C3CC3)cc12 showed an MNTC of 25 µM.
For C[C@H]1COCCN1[C@@H]1CCc2ccccc2[C@H]1Nc1ncnc2[nH]c(C(F)(F)F)cc12 (single isomer, unassigned), the MNTC was 25 µM.
For CO[C@H]1CCN([C@@H]2COc3ccccc3[C@H]2Nc2ncnc3[nH]c(C(F)(F)F)cc23)C1, the MNTC was 25 µM.
In the case of FC(F)OC1CN([C@H]2COc3ccccc3[C@@H]2Nc2ncnc3[nH]c(C(F)(F)F)cc23)C1, the MNTC was 25 µM.
Work on OC[C@@H]1CN([C@H]2COc3ccccc3[C@@H]2Nc2ncnc3[nH]c(C(F)(F)F)cc23)CCO1 (single isomer, unassigned) yielded an MNTC of 25 µM.
With Fc1cccc2c1CC[C@@H](N1C[C@H]3COC[C@H]3C1)[C@@H]2Nc1ncnc2[nH]c(C3CC3)cc12 (single isomer, unassigned) the MNTC was 25 µM.
Compound C[C@H]1CN([C@H]2COc3cc(F)ccc3[C@@H]2Nc2ncnc3[nH]c(C4CC4)cc23)CCO1 has an MNTC of 25 µM.
In the case of FC(F)(F)c1cc2c(N[C@@H]3c4ccccc4OC[C@H]3N3CCOCC3)ncnc2[nH]1, the MNTC was 25 µM.
With C[C@H]1CN([C@@H]2COc3cc(F)ccc3[C@H]2Nc2ncnc3[nH]c(C(F)(F)F)cc23)CCO1 the MNTC was 25 µM.
Compound FC(F)(F)c1cc2c(N[C@@H]3c4ccccc4OC[C@H]3C3CCCOC3)ncnc2[nH]1 (stereo not given in full) has an MNTC of 25 µM.
With c1ccc2c(c1)OC[C@@H](N1C[C@H]3COC[C@H]3C1)[C@@H]2Nc1ncnc2[nH]c(C3CC3)cc12 (single isomer, unassigned) the MNTC was 25 µM.
C[S@](=N)(=O)C1CN([C@H]2COc3ccccc3[C@@H]2Nc2ncnc3[nH]c(C(F)(F)F)cc23)C1 (single isomer, unassigned) gave an MNTC of 25 µM.
With C[C@H]1CN([C@@H]2CCc3ccccc3[C@H]2Nc2ncnc3[nH]c(C4CC4)cc23)CCO1 (single isomer, unassigned) the MNTC was 25 µM.
For c1ccc2c(c1)CC[C@@H](C1CCOCC1)[C@@H]2Nc1ncnc2[nH]c(C3CC3)cc12, the MNTC was 25 µM.
Compound c1ccc2c(c1)OC[C@H](N1C[C@H]3COC[C@H]3C1)[C@H]2Nc1ncnc2[nH]c(C3CC3)cc12 (single isomer, unassigned) has an MNTC of 25 µM.
In the case of OC[C@H]1CN([C@H]2COc3ccccc3[C@@H]2Nc2ncnc3[nH]c(C(F)(F)F)cc23)CCO1 (single isomer, unassigned), the MNTC was 25 µM.
For C[C@@H]1COCCN1[C@@H]1CCc2ccccc2[C@H]1Nc1ncnc2[nH]c(C(F)(F)F)cc12 (single isomer, unassigned), the MNTC was 25 µM.
COC[C@@H]1CCCN1[C@H]1COc2ccccc2[C@@H]1Nc1ncnc2[nH]c(C(F)(F)F)cc12 (single isomer, unassigned) showed an MNTC of 25 µM.
In the case of C[C@@H]1CN([C@H]2COc3ccccc3[C@@H]2Nc2ncnc3[nH]c(C4CC4)cc23)CCO1, the MNTC was 25 µM.
Fc1cccc2c1CC[C@H](N1C[C@H]3COC[C@H]3C1)[C@H]2Nc1ncnc2[nH]c(C3CC3)cc12 (single isomer, unassigned) showed an MNTC of 25 µM.
Work on CS(=N)(=O)C1CN(C2COc3ccccc3C2Nc2ncnc3[nH]c(C(F)(F)F)cc23)C1 (stereo not given) yielded an MNTC of 25 µM.
With Fc1ccc2c(c1)CC[C@H](N1C[C@H]3COC[C@H]3C1)[C@H]2Nc1ncnc2[nH]c(C(F)(F)F)cc12 (single isomer, unassigned) the MNTC was 25 µM.
In the case of C[C@H]1CN([C@@H]2CCc3ccccc3[C@H]2Nc2ncnc3[nH]c(C(F)(F)F)cc23)CCO1 (single isomer, unassigned), the MNTC was 25 µM.
In the case of C[C@@H]1CN([C@@H]2CCc3ccccc3[C@H]2Nc2ncnc3[nH]c(C4CC4)cc23)C[C@H](C)O1 (single isomer, unassigned), the MNTC was 25 µM.
Work on C[C@@H]1COCCN1[C@H]1CCc2ccccc2[C@@H]1Nc1ncnc2[nH]c(C3CC3)cc12 (single isomer, unassigned) yielded an MNTC of 2.8 µM.
With C[C@@H]1CN([C@@H]2CCc3ccccc3[C@H]2Nc2ncnc3[nH]c(C4CC4)cc23)CCO1 (single isomer, unassigned) the MNTC was 25 µM.
Compound CO[C@@H]1CCN([C@H]2COc3ccccc3[C@@H]2Nc2ncnc3[nH]c(C4CC4)cc23)C1 has an MNTC of 25 µM.
Compound C[C@H]1CN([C@H]2COc3cc(F)ccc3[C@@H]2Nc2ncnc3[nH]c(C(F)(F)F)cc23)CCO1 has an MNTC of 25 µM.
With C[C@@H]1CN([C@@H]2CCc3ccccc3[C@H]2Nc2ncnc3[nH]c(C(F)(F)F)cc23)C[C@H](C)O1 (single isomer, unassigned) the MNTC was 25 µM.
C[S@@](=N)(=O)C1CN(C2COc3ccccc3C2Nc2ncnc3[nH]c(C(F)(F)F)cc23)C1 (single isomer, unassigned) gave an MNTC of 25 µM.
In the case of OC(C1CCOCC1)[C@H]1COc2ccccc2[C@@H]1Nc1ncnc2[nH]c(C(F)(F)F)cc12 (stereo not given in full), the MNTC was 25 µM.
With FC(F)(F)c1cc2c(N[C@@H]3c4ccccc4CC[C@@H]3C3CCOCC3)ncnc2[nH]1 the MNTC was 25 µM.
Work on C[C@@H]1CN([C@H]2CCc3ccccc3[C@@H]2Nc2ncnc3[nH]c(C4CC4)cc23)C[C@H](C)O1 (single isomer, unassigned) yielded an MNTC of 25 µM.
Work on C[C@H]1CN([C@@H]2COc3ccccc3[C@H]2Nc2ncnc3[nH]c(C4CC4)cc23)CCO1 yielded an MNTC of 25 µM.
Compound c1ccc2c(c1)OC[C@@H](C1CCOCC1)[C@H]2Nc1ncnc2[nH]c(C3CC3)cc12 has an MNTC of 25 µM.
In the case of Fc1ccc2c(c1)CC[C@@H](N1C[C@@H]3COC[C@H]3C1)[C@@H]2Nc1ncnc2[nH]c(C(F)(F)F)cc12, the MNTC was 25 µM.
For c1ccc2c(c1)OC[C@H](C1CCOCC1)[C@@H]2Nc1ncnc2[nH]c(C3CC3)cc12, the MNTC was 25 µM.
In the case of FC(F)(F)c1cc2c(N[C@@H]3c4ccccc4CC[C@H]3C3CCOCC3)ncnc2[nH]1 (single isomer, unassigned), the MNTC was 25 µM.
Work on c1ccc2c(c1)CC[C@@H](C1CCOCC1)[C@H]2Nc1ncnc2[nH]c(C3CC3)cc12 yielded an MNTC of 25 µM.
Compound Fc1cccc2c1CC[C@H](N1C[C@H]3COC[C@H]3C1)[C@H]2Nc1ncnc2[nH]c(C(F)(F)F)cc12 (single isomer, unassigned) has an MNTC of 25 µM.
For FC(F)(F)c1cc2c(N[C@H]3c4ccccc4OC[C@@H]3C3CCCOC3)ncnc2[nH]1 (single isomer, unassigned), the MNTC was 25 µM.
In the case of [2H]C([2H])([2H])OC1CN([C@@H]2COc3ccccc3[C@H]2Nc2ncnc3[nH]c(C(F)(F)F)cc23)C1, the MNTC was 25 µM.
Fc1ccc2c(c1)OC[C@H](N1C[C@@H]3COC[C@H]3C1)[C@H]2Nc1ncnc2[nH]c(C(F)(F)F)cc12 (single isomer, unassigned) gave an MNTC of 25 µM.
FC1COCCC1[C@H]1COc2ccccc2[C@@H]1Nc1ncnc2[nH]c(C(F)(F)F)cc12 (single isomer, unassigned) showed an MNTC of 25 µM.
Compound FC(F)(F)c1cc2c(N[C@H]3c4ccccc4OC[C@@H]3N3CCOCC3)ncnc2[nH]1 (single isomer, unassigned) has an MNTC of 25 µM.
In the case of C[C@@H]1CN([C@@H]2CCc3ccccc3[C@H]2Nc2ncnc3[nH]c(C(F)(F)F)cc23)CCO1 (single isomer, unassigned), the MNTC was 25 µM.
In the case of c1ccc2c(c1)CC[C@@H](N1C[C@H]3COC[C@H]3C1)[C@@H]2Nc1ncnc2[nH]c(C3CC3)cc12 (single isomer, unassigned), the MNTC was 25 µM.
COC[C@H]1CCCN1[C@H]1COc2ccccc2[C@@H]1Nc1ncnc2[nH]c(C(F)(F)F)cc12 (single isomer, unassigned) gave an MNTC of 25 µM.
For OC(C1CCOCC1)C1COc2ccccc2C1Nc1ncnc2[nH]c(C(F)(F)F)cc12 (single isomer, unassigned), the MNTC was 25 µM.
Compound C[C@H]1CN([C@H]2COc3ccccc3[C@@H]2Nc2ncnc3[nH]c(C(F)(F)F)cc23)CCO1 has an MNTC of 25 µM.
In the case of C[C@@H]1CN([C@H]2CCc3ccccc3[C@@H]2Nc2ncnc3[nH]c(C(F)(F)F)cc23)C[C@H](C)O1 (single isomer, unassigned), the MNTC was 25 µM.
With FC(F)(F)c1cc2c(N[C@H]3c4ccccc4OC[C@H]3C3CCOCC3)ncnc2[nH]1 the MNTC was 8.3 µM.
Compound Fc1cccc2c1CC[C@@H](N1C[C@H]3COC[C@H]3C1)[C@@H]2Nc1ncnc2[nH]c(C(F)(F)F)cc12 (single isomer, unassigned) has an MNTC of 25 µM.
Fc1ccc2c(c1)OC[C@H](N1CCOCC1)[C@H]2Nc1ncnc2[nH]c(C3CC3)cc12 showed an MNTC of 25 µM.
Fc1ccc2c(c1)OC[C@H](N1C[C@H]3COC[C@H]3C1)[C@H]2Nc1ncnc2[nH]c(C3CC3)cc12 (single isomer, unassigned) showed an MNTC of 25 µM.
